How the values were obtained:
[1] = biological target: T1, Dual specificity mitogen-activated protein kinase kinase 4 (Homo sapiens, UniProt P45985)
T1 sequence (P45985 whole entry): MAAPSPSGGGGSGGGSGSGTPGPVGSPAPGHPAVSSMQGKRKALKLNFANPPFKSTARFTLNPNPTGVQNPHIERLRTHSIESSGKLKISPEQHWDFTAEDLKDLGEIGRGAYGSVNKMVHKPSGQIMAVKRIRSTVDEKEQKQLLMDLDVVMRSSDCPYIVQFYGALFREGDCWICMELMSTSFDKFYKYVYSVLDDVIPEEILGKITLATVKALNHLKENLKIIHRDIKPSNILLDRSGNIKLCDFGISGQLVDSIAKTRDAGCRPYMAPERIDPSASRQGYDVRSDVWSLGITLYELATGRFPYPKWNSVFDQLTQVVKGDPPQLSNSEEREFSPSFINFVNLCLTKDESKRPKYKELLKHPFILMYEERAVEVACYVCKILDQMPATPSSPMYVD

[2] = biological target: Cyclin-dependent kinase 5 (Homo sapiens, UniProt Q00535)
[3] = biological target: MAP kinase-interacting serine/threonine-protein kinase 1 (Homo sapiens, UniProt Q9BUB5)
[4] = biological target: Serine/threonine-protein kinase pim-1 (Homo sapiens, UniProt P11309)
[5] = biological target: T2, Serine/threonine-protein kinase TNNI3K (Homo sapiens, UniProt Q59H18)
T2 sequence (Q59H18 whole entry): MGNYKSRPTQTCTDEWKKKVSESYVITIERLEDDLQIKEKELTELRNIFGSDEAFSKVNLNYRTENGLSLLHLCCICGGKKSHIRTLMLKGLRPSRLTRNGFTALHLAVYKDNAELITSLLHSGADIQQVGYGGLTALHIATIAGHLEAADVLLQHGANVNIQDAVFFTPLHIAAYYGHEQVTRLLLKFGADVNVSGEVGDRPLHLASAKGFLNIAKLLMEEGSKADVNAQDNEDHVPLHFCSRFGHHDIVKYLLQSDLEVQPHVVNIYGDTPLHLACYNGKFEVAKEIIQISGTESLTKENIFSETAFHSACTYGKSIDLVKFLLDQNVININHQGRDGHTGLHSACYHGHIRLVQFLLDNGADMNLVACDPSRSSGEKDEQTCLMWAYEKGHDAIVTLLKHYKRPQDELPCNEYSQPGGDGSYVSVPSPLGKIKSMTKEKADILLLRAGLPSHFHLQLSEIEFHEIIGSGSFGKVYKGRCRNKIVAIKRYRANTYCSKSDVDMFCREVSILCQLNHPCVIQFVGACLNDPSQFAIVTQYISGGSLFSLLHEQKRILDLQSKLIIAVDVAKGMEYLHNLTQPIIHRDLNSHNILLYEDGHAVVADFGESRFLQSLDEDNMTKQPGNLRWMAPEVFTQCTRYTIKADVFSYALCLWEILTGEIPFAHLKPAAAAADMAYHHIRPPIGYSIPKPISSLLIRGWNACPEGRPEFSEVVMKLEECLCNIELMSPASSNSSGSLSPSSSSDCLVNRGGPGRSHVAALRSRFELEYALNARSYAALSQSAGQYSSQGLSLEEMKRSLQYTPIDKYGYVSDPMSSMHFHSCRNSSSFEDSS

[6] = biological target: Dual specificity mitogen-activated protein kinase kinase 2 (Homo sapiens, UniProt P36507)
[7] = biological target: Serine/threonine-protein kinase MRCK alpha (Homo sapiens, UniProt Q5VT25)
[8] = biological target: Leukocyte tyrosine kinase receptor (Homo sapiens, UniProt P29376)
[9] = biological target: Serine/threonine-protein kinase SIK2 (Homo sapiens, UniProt Q9H0K1)
[10] = biological target: T3, Receptor-type tyrosine-protein kinase FLT3 (Homo sapiens, UniProt P36888)
T3 sequence (P36888 whole entry): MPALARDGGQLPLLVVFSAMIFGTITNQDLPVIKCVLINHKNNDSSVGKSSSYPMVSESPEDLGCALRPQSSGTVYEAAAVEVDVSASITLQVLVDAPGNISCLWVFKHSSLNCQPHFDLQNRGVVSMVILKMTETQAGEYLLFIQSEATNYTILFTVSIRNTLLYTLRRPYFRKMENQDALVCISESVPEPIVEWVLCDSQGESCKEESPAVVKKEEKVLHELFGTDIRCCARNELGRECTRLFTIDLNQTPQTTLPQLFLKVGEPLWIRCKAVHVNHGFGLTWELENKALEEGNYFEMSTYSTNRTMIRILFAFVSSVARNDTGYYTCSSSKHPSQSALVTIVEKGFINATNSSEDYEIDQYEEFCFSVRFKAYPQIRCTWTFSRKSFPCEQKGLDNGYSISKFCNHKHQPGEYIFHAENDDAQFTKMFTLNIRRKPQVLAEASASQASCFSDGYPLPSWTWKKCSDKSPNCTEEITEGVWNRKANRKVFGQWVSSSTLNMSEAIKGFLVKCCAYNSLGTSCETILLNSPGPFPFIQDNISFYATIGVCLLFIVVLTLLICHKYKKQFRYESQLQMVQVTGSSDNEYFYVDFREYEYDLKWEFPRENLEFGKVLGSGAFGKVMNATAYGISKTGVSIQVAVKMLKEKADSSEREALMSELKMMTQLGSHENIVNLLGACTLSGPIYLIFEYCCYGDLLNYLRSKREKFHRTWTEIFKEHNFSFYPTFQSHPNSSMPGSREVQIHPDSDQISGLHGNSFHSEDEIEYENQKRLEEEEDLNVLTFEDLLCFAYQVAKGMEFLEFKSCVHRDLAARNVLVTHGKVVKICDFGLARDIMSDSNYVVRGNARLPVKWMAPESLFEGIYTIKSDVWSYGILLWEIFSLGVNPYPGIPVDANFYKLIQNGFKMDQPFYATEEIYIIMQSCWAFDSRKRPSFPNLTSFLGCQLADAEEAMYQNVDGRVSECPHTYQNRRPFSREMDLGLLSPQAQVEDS

[11] = biological target: Cyclin-dependent kinase 7 (Homo sapiens, UniProt P50613)
[12] = biological target: Tyrosine-protein kinase ABL2 (Homo sapiens, UniProt P42684)
[13] = biological target: High affinity nerve growth factor receptor (Homo sapiens, UniProt P04629)
[14] = biological target: Mitogen-activated protein kinase 9 (Homo sapiens, UniProt P45984)

Measured: Kd

CCN1CCN(Cc2ccc(NC(=O)Nc3ccc(Oc4cc(NC)ncn4)cc3)cc2C(F)(F)F)CC1 [AST-487]
1 µM: [2]
> 10 µM: [1]

COCC(=O)NC/C=C/c1ccc2ncnc(Nc3ccc(Oc4ccc(C)nc4)c(C)c3)c2c1 [CP-724714]
> 10 µM: [3] | [4] | [5] | [6] | [7] | [8] | [9] | [1] | [2] | [10] | [11] | [12] | [13] | [14]

Nc1nc(Nc2ccc(S(N)(=O)=O)cc2)nn1C(=O)c1c(F)cccc1F [JNJ-7706621]
1.4 µM: [5]
> 10 µM: [3] | [7] | [8] | [12]

CCOc1cc2ncc(C#N)c(Nc3ccc(F)c(Cl)c3)c2cc1NC(=O)/C=C/CN(C)C [PELITINIB]
> 10 µM: [3] | [4] | [7] | [8] | [1] | [2] | [10] | [11] | [13] | [14]
7.2 µM: [5]

Oc1ccc(-c2nc(-c3ccncc3)c(-c3ccc(F)cc3)[nH]2)cc1 [SB-202190]
9.6 µM: [6]
> 10 µM: [3] | [4] | [5] | [7] | [8] | [9] | [1] | [2] | [10] | [11] | [12] | [13]

NC(=O)c1ccc(-c2nc(-c3ccc4c(c3)OCO4)c(-c3ccccn3)[nH]2)cc1 [SB-431542]
> 10 µM: [3] | [4] | [5] | [6] | [7] | [8] | [9] | [1] | [2] | [11] | [12] | [13] | [14]
